The test system of data set [1] is human ovarian cancer SK-OV-3. As to conditions: 24 mg/kg (paclitaxel 16 mg/kg) D0-4 IV; for Tumor volume (D0): D0, at grouping; for Tumor inhibitory percent (%) D22: P=0.000 compared to the control.
Source text: Test of the inhibitory activity of the water soluble paclitaxel derivatives on subcutaneously xenografted tumor of human ovarian cancer SK-OV-3 in nude mice: evaluating and comparing the inhibitory activity of the water soluble paclitaxel derivatives of the present invention, paclitaxel and Abraxane® on subcutaneously xenografted tumor of human ovarian cancer SK-OV-3 in nude mice.
Human ovarian cancer SK-OV-3 cells were subcutaneously inoculated to nude mice. After the tumor volume reached 100-150 mm^3, the animals were randomly divided into groups (D0), and administered with the water soluble paclitaxel derivatives of the present invention, paclitaxel, and Abraxane®, respectively once per day for 5 days. The tumor volume was measured 2-3 times per week, the animals were weighed and the data were recorded until day 22 (D22) after grouping.
The tumor volume (V) was calculated according to the equation: V=½×a×b^2, wherein a and b represent the length and the width, respectively.
T/C (%)=(T−T0)/(C−C0)×100, wherein T and C represent the tumor volume at the end of the experiment; and T0 and C0 represent the tumor volume at the beginning of the experiment.
Data set [2] is described as follows: In vitro dissociation of the water soluble taxane derivatives in blood plasma of rat. The class given is in vitro ADME, SD rats. As to conditions: 37° C. The procedure:
The obtained water soluble taxane derivatives were formulated as 0.2 mg/ml aqueous solutions. […] After 2 min, 5 min and 10 min of incubation, 0.2 ml of solutions were respectively taken from each of the samples, and added to acetonitrile (0.4 ml) cooled to −20° C. for precipitation of protein.

Data set [3] is described as follows: In vitro dissociation of the water soluble taxane derivatives in blood plasma of rabbit. The class given is in vitro ADME, New Zealand white rabbits. As to conditions: 37° C. As to the method: The obtained water soluble taxane derivatives were formulated as 0.2 mg/ml aqueous solutions. […] After 5 min, 20 min and 60 min of incubation, 0.2 ml of solutions were respectively taken from each of the samples, and added to acetonitrile (0.4 ml) cooled to −20° C. for precipitation of protein.

The values that follow come from patent US10239851B2 (priority 2014, dated 2019).

Counter-ions that a name gives are not always drawn.

Consider `CCN(C)CC[C@@H](F)C(=O)O[C@@H](C(=O)O[C@H]1C[C@@]2(O)[C@@H](OC(=O)c3ccccc3)[C@@H]3[C@]4(OC(C)=O)CO[C@@H]4C[C@H](O)[C@@]3(C)C(=O)[C@H](OC(C)=O)C(=C1C)C2(C)C)[C@@H](NC(=O)c1ccccc1)c1ccccc1.CS(=O)(=O)O` [Compound 16, 2′-O-[4-(N-methyl-N-ethyl)amino-2(R)-fluorobutyryl]paclitaxel methanesulfonate], for which, in data set [1], the “Tumor volume (D0)” value is on record as 133.6 ± 9.4 mm^3, the “Weight change (%) D4” value is on record as −7.0%, the “T/C (%) D22” value was −53% and the “Tumor volume (D22)” value was found to be 55.7 ± 10.6 mm^3. Further, the “Tumor inhibitory percent (%) D22” value in data set [1] worked out at 137%.
On to `COC1C(=O)C2(C)C(OC)CC3OCC3(OC(C)=O)C2C(OC(=O)c2ccccc2)C2(O)CC(OC(=O)C(OC(=O)C(CCN)C(F)F)C(NC(=O)OC(C)(C)C)c3ccccc3)C(C)=C1C2(C)C.O=S(=O)([O-])O.[Na+]` [Compound 10, 2′-O-[4-amino-2(R)-difluoromethylbutyryl]cabazitaxel sodium bisulfate salt], for which the dissociation percent in data set [2] (2 min) turned out to be 45.2%; in data set [2] (5 min), 86.5%; in data set [2] (10 min) it was 96.8%; in data set [3] (5 min) it was 38.1%; in data set [3] (20 min), 63.2%; in data set [3] (60 min), 80.3%.
With `COC1C(=O)C2(C)C(OC)CC3OCC3(OC(C)=O)C2C(OC(=O)c2ccccc2)C2(O)CC(OC(=O)C(OC(=O)C(F)CCN(C)C)C(NC(=O)OC(C)(C)C)c3ccccc3)C(C)=C1C2(C)C.Cl` [Compound 09, 2′-O-[4-(N,N-dimethyl)amino-2(R,S)-fluorobutyryl]cabazitaxel hydrochloride], the dissociation percent in data set [2] (2 min) is given as 47.8%; in data set [2] (5 min), 89.1%; in data set [2] (10 min), 100%; in data set [3] (5 min), 83.2%; in data set [3] (20 min), 97.1%; in data set [3] (60 min), 100%.
Consider `CO[C@H]1C(=O)[C@]2(C)[C@@H](OC)C[C@H]3OC[C@@]3(OC(C)=O)[C@H]2[C@H](OC(=O)c2ccccc2)[C@]2(O)C[C@H](OC(=O)[C@H](OC(=O)[C@@H](F)CCN(C)C)[C@@H](NC(=O)OC(C)(C)C)c3ccccc3)C(C)=C1C2(C)C.Cl` [Compound 08, 2′-O-[4-(N,N-dimethyl)amino-2(S)-fluorobutyryl]cabazitaxel hydrochloride], for which the dissociation percent in data set [2] (2 min) is reported as 47.6%; in data set [2] (5 min), 87.6%; in data set [2] (10 min), 100%; in data set [3] (5 min), 89.9%; in data set [3] (20 min), 93.2%; in data set [3] (60 min) it was 100%.
For the compound `CCN(CC)CC[C@H](F)C(=O)O[C@@H](C(=O)O[C@H]1C[C@@]2(O)[C@@H](OC(=O)c3ccccc3)[C@@H]3[C@]4(OC(C)=O)CO[C@@H]4C[C@H](O)[C@@]3(C)C(=O)[C@H](OC(C)=O)C(=C1C)C2(C)C)[C@@H](NC(=O)c1ccccc1)c1ccccc1.O=C(O)/C=C/C(=O)O` [Compound 17, 2′-O-[4-(N,N-diethyl)amino-2(S)-fluorobutyryl]paclitaxel fumarate], in data set [1], the “Tumor volume (D0)” value came to 133.6 ± 9.4 mm^3, the “Weight change (%) D4” value is −8.1%, the “T/C (%) D22” value is recorded as −44% and the “Tumor volume (D22)” value was 55.7 ± 10.1 mm^3. Also, in data set [1], the “Tumor inhibitory percent (%) D22” value is on record as 114%.
For `CC(=O)O[C@H]1C(=O)[C@@]2(C)[C@H]([C@H](OC(=O)c3ccccc3)[C@]3(O)C[C@H](OC(=O)[C@H](OC(=O)C(F)CCN(C)C(C)C)[C@@H](NC(=O)c4ccccc4)c4ccccc4)C(C)=C1C3(C)C)[C@]1(OC(C)=O)CO[C@@H]1C[C@@H]2O.Cl` (stereo partly drawn) [Compound 18, 2′-O-[4-(N-methyl-N-isopropyl)amino-2(R,S)-fluorobutyryl]paclitaxel hydrochloride], in that order: 127.9 ± 11.4 mm^3, −10.3%, −38%, 60.4 ± 12.3 mm^3 and 98%.
As for `CO[C@H]1C(=O)[C@]2(C)[C@@H](OC)C[C@H]3OC[C@@]3(OC(C)=O)[C@H]2[C@H](OC(=O)c2ccccc2)[C@]2(O)C[C@H](OC(=O)[C@H](OC(=O)[C@H](F)CCN(C)C)[C@@H](NC(=O)OC(C)(C)C)c3ccccc3)C(C)=C1C2(C)C` [Compound 07, 2′-O-[4-(N,N-dimethyl)amino-2(R)-fluorobutyryl]cabazitaxel hydrochloride], the dissociation percent in data set [2] (2 min) is on record as 49.5%; in data set [2] (5 min), 89.6%; in data set [2] (10 min), 100%; in data set [3] (5 min) it was 79.2%; in data set [3] (20 min), 95.5%; in data set [3] (60 min), 100%.
As to `CC(=O)OC1C(=O)C2(C)C(O)CC3OCC3(OC(C)=O)C2C(OC(=O)c2ccccc2)C2(O)CC(OC(=O)C(OC(=O)C(CCCCN(C)C)C(F)F)C(NC(=O)c3ccccc3)c3ccccc3)C(C)=C1C2(C)C.O=S(=O)(O)O` [Compound 22, 2′-O-[6-(N,N-dimethyl)amino-2(S)-2-difluoromethylhexanoyl]paclitaxel sulfate], in data set [1], the “Tumor volume (D0)” value is 133.8 ± 12.2 mm^3, the “Weight change (%) D4” value was −11.6%, the “T/C (%) D22” value was −14% and the “Tumor volume (D22)” value is 79.8 ± 12.8 mm^3. Further, the “Tumor inhibitory percent (%) D22” value in data set [1] came to 36%.
Take `CCN(CC)CC[C@](C)(C(=O)O[C@@H](C(=O)O[C@H]1C[C@@]2(O)[C@@H](OC(=O)c3ccccc3)[C@@H]3[C@]4(OC(C)=O)CO[C@@H]4C[C@H](OC)[C@@]3(C)C(=O)[C@H](OC)C(=C1C)C2(C)C)[C@@H](NC(=O)OC(C)(C)C)c1ccccc1)C(F)(F)F.CS(=O)(=O)O` [Compound 11, 2′-O-[4-(N,N-diethyl)amino-2-methyl-2(R)-2-trifluoromethylbutyryl]cabazitaxel methanesulfonate]: the dissociation percent in data set [2] (2 min) was determined as 52.3%; in data set [2] (5 min) it was 89.6%; in data set [2] (10 min), 97.2%; in data set [3] (5 min) it was 56.2%; in data set [3] (20 min), 80.5%; in data set [3] (60 min) it was 92.1%.
In the case of `CC(=O)O[C@H]1C(=O)[C@@]2(C)[C@H]([C@H](OC(=O)c3ccccc3)[C@]3(O)C[C@H](OC(=O)[C@H](OC(=O)[C@H](F)CCCN(C)C)[C@@H](NC(=O)c4ccccc4)c4ccccc4)C(C)=C1C3(C)C)[C@]1(OC(C)=O)CO[C@@H]1C[C@@H]2O.O=C(O)/C=C\C(=O)O` [Compound 21, 2′-O-[5-(N,N-dimethyl)amino-2(R)-fluorovaleryl]paclitaxel maleate], in data set [1], the “Tumor volume (D0)” value was 135.8 ± 14.7 mm^3, the “Weight change (%) D4” value is reported as −9.4%, the “T/C (%) D22” value was −23% and the “Tumor volume (D22)” value worked out at 70.8 ± 16.8 mm^3. In addition, in data set [1], the “Tumor inhibitory percent (%) D22” value was 60%.
With “2′-O-[5-(N-methyl-N-ethyl)amino-2(R)-2-difluoroethylvaleryl]docetaxel hydrochloride [Compound 12]”, the dissociation percent is on record as 43.6% in data set [2] (2 min); 75.6% in data set [2] (5 min); 89.6% in data set [2] (10 min); 35.2% in data set [3] (5 min); 61.3% in data set [3] (20 min); 73.2% in data set [3] (60 min).
Turning to `CC(=O)OC1C(=O)C2(C)C(O)CC3OCC3(OC(C)=O)C2C(OC(=O)c2ccccc2)C2(O)CC(OC(=O)C(OC(=O)C(CCN(C)C)C(F)(F)F)C(NC(=O)c3ccccc3)c3ccccc3)C(C)=C1C2(C)C.Cc1ccc(S(=O)(=O)O)cc1` [Compound 19, 2′-O-[4-(N,N-dimethyl)amino-2(R,S)-2-trifluoromethylbutyryl]paclitaxel p-toluene sulfonate], in data set [1], the “Tumor volume (D0)” value was determined as 134.9 ± 11.4 mm^3, the “Weight change (%) D4” value is −8.9%, the “T/C (%) D22” value was −48% and the “Tumor volume (D22)” value is on record as 57.3 ± 11.4 mm^3. Besides, the “Tumor inhibitory percent (%) D22” value in data set [1] was found to be 124%.
Turning to `CC(=O)O[C@H]1C(=O)[C@@]2(C)[C@H]([C@H](OC(=O)c3ccccc3)[C@]3(O)C[C@H](OC(=O)[C@H](OC(=O)C(CCN(C)C)C(F)F)[C@@H](NC(=O)c4ccccc4)c4ccccc4)C(C)=C1C3(C)C)[C@]1(OC(C)=O)CO[C@@H]1C[C@@H]2O.Cl` (stereo partly drawn) [Compound 20, 2′-O-[4-(N,N-dimethyl)amino-2(R,S)-2-difluoromethylbutyryl]paclitaxel hydrochloride], in data set [1], the “Tumor volume (D0)” value is listed as 133.4 ± 12.6 mm^3, the “Weight change (%) D4” value is given as −8.4%, the “T/C (%) D22” value is listed as −35% and the “Tumor volume (D22)” value stood at 61.2 ± 13.5 mm^3. Also, in data set [1], the “Tumor inhibitory percent (%) D22” value was 91%.
